{"source": "patent US4536335A", "about": "“Carbapenem antibiotics” (Bristol-Myers Company, priority 1983, dated 1985)", "key": {"S. marcescens A20019": {"system": "S. marcescens A20019", "test": "In vitro MIC, tube dilution", "assay_type": "cell-based", "details": "tube dilution, Nutrient Broth, overnight incubation at 37° C."}, "E. cloacae A-9569": {"system": "E. cloacae A-9569", "test": "In vitro MIC, tube dilution", "assay_type": "cell-based", "details": "Enterobacter cloacae, A9569, Nutrient Broth, overnight incubation at 37° C.", "source_text": "(§1) N-Formimidoyl thienamycin was included as a comparison compound."}, "B. fragilis A22696": {"system": "B. fragilis A22696", "test": "In vitro MIC, tube dilution", "assay_type": "cell-based", "details": "Bacteroides fragilis, Nutrient Broth, overnight incubation at 37° C.", "source_text": "as §1"}, "B. fragilis A22863": {"system": "B. fragilis A22863", "test": "In vitro MIC, tube dilution", "assay_type": "cell-based", "details": "Bacteroides fragilis, Nutrient Broth, overnight incubation at 37° C.", "source_text": "as §1"}, "B. fragilis A22053": {"system": "B. fragilis A22053", "test": "In vitro MIC, tube dilution", "assay_type": "cell-based", "details": "Bacteroides fragilis, Nutrient Broth, overnight incubation at 37° C.", "source_text": "as §1"}, "P. aeruginosa A-9843A [1]": {"system": "P. aeruginosa A-9843A", "test": "In vitro MIC, tube dilution", "assay_type": "cell-based", "details": "Pseudomonas aeruginosa, A9843A, Nutrient Broth, overnight incubation at 37° C."}, "P. aeruginosa A20481": {"system": "P. aeruginosa A20481", "test": "Protective effect in the intramuscular treatment of infected mice (PD50)", "assay_type": "in vivo", "details": "Pseudomonas aeruginosa, A20481, im; mice infected i.p. (Ex. 2: 1 × 10^5 organisms), treated i.m. 0 and 2 h postinfection"}, "S. aureus A-9606": {"system": "S. aureus A-9606", "test": "Protective effect in the intramuscular treatment of infected mice (PD50)", "assay_type": "in vivo", "details": "Staphylococcus aureus, A9606, im, read-out: PD50/treatment, S. aureus A-9606, mice infected i.p. (Ex. 2: 2 × 10^9 organisms; Ex. 4 and 5: ~9 × 10^7), treated i.m. 0 and 2 h postinfection"}, "K. pneumoniae A20468": {"system": "K. pneumoniae A20468", "test": "In vitro MIC, tube dilution", "assay_type": "cell-based", "details": "Klebsiella pneumoniae, A20468, tube dilution, Nutrient Broth, overnight incubation at 37° C."}, "E. cloacae A-9656": {"system": "E. cloacae A-9656", "test": "In vitro MIC, tube dilution", "assay_type": "cell-based", "details": "tube dilution, Nutrient Broth, overnight incubation at 37° C."}, "P. mirabilis A-9900": {"system": "P. mirabilis A-9900", "test": "In vitro MIC, tube dilution", "assay_type": "cell-based", "details": "Nutrient Broth, overnight incubation at 37° C.; for MIC: Proteus mirabilis, A9900, tube dilution"}, "[2]": {"test": "Urinary recovery after intramuscular administration to mice", "assay_type": "in vivo", "details": "mouse, urine, im, 20 mg/kg, mice, i.m. 20 mg/kg, 6-24 hours after administration; read-out: Percentage of Dose Recovered in urine, 6-24 hours", "method": "Compounds were solubilized in 0.1 M phosphate buffer pH 7. Values are from a single test; 4 mice per compound.\n(§2) Also shown is the urinary recovery in the mice.\n***Recovery based on 0-6 hour collection"}, "[3]": {"system": "S. aureus A-9606 (Pen-res.)", "test": "In vitro MIC, tube dilution", "assay_type": "cell-based", "details": "Nutrient Broth, overnight incubation at 37° C.; for MIC: Staphylococcus aureus"}, "K. pneumoniae A-9664": {"system": "K. pneumoniae A-9664", "test": "In vitro MIC, tube dilution", "assay_type": "cell-based", "details": "Nutrient Broth, overnight incubation at 37° C.; for MIC: Klebsiella pneumoniae, A9664, tube dilution"}, "S. pyogenes A-9604": {"system": "S. pyogenes A-9604", "test": "In vitro MIC, tube dilution", "assay_type": "cell-based", "details": "Nutrient Broth, overnight incubation at 37° C.; for MIC: Streptococcus pyogenes, A9604, tube dilution"}, "S. pneumoniae A-9585": {"system": "S. pneumoniae A-9585", "test": "In vitro MIC, tube dilution", "assay_type": "cell-based", "details": "overnight incubation at 37° C.; for MIC: Streptococcus pneumoniae, A9585, Nutrient Broth"}, "P. aeruginosa A21213": {"system": "P. aeruginosa A21213", "test": "In vitro MIC, tube dilution", "assay_type": "cell-based", "details": "Nutrient Broth, overnight incubation at 37° C.; for MIC: Pseudomonas aeruginosa, A21213, tube dilution"}, "S. faecalis A20688": {"system": "S. faecalis A20688", "test": "In vitro MIC, tube dilution", "assay_type": "cell-based", "details": "Nutrient Broth, overnight incubation at 37° C.; for MIC: Enterococcus faecalis, A20688, tube dilution"}, "P. morganii A15153": {"system": "P. morganii A15153", "test": "In vitro MIC, tube dilution", "assay_type": "cell-based", "details": "Morganella morganii, A15153, tube dilution, Nutrient Broth, overnight incubation at 37° C.; read-out: MIC P. morganii A15153"}, "P. aeruginosa A-9843a [4]": {"system": "P. aeruginosa A-9843a", "test": "Protective effect in the intramuscular treatment of infected mice (PD50)", "assay_type": "in vivo", "details": "Pseudomonas aeruginosa, A9843A, im", "method": "The PD50 (dose in mg/kg required to give protection to 50% of the infected mice) is indicated.\nTreatment Schedule: Mice were treated i.m. with drugs 0 and 2 hours post-infection; 5 mice per dose were used for each test\n*For compound of Ex. 2, mice were infected i.p. with 2 × 10^9\ncompounds of Ex. 4 and 5, mice were infected i.p. with ~9 ×\nwere treated i.m. with drugs 0 and 2 h postinfection."}, "[5]": {"test": "Blood levels in mice after intramuscular administration", "assay_type": "in vivo", "details": "mouse, intramuscular dose of 20 mg/kg", "source_text": "Compounds were solubilized in 0.1 M phosphate buffer pH 7. Values are fro\na single test; 4 mice used per compound.\n*t1/2 refers to halflife in minutes\n**AUC refers to the area under the blood concentrationtime curve\nas §2\nCompounds were solubilized in 0.1 M phosphate buffer, pH 7.\nValues based on a single test; 4 mice per compound.\n*T1/2 refers to halflife in minutes"}, "P. rettgeri A22424": {"system": "P. rettgeri A22424", "test": "In vitro MIC, tube dilution", "assay_type": "cell-based", "details": "Providencia rettgeri, A22424, tube dilution, Nutrient Broth, overnight incubation at 37° C."}, "[6]": {"details": "tube dilution, additional data table, listed as MK 0787"}}, "note": "Read-outs that look alike come from different tables or passages of the source.", "data": [{"smiles": "C[C@@H](O)[C@H]1C(=O)N2C(C(=O)O)=C(SCCN=CN)C[C@H]12", "note": "[N-Formimidoyl Thienamycin, N-formimidoyl thienamycin, reference compound]", "values": [{"measurement": "MIC", "setting": "S. marcescens A20019; Serratia marcescens, A20019", "value": 0.03, "unit": "µg/mL"}, {"measurement": "MIC S. marcescens A20019", "setting": "S. marcescens A20019; additional data table", "value": 0.03, "unit": "µg/mL"}, {"measurement": "MIC", "setting": "E. cloacae A-9569", "value": 0.06, "unit": "µg/mL"}, {"measurement": "MIC", "setting": "B. fragilis A22696", "value": 0.13, "unit": "µg/mL"}, {"measurement": "MIC", "setting": "B. fragilis A22863", "value": 1, "unit": "µg/mL"}, {"measurement": "MIC", "setting": "B. fragilis A22053", "value": 0.06, "unit": "µg/mL"}, {"measurement": "MIC", "setting": "P. aeruginosa A-9843A [1]", "value": 1, "unit": "µg/mL"}, {"measurement": "MIC", "setting": "P. aeruginosa A-9843A [1]; additional data table", "value": 1, "unit": "µg/mL"}, {"measurement": "ED50", "setting": "P. aeruginosa A20481", "value": 0.4, "unit": "mg/kg"}, {"measurement": "ED50", "setting": "S. aureus A-9606", "value": 0.07, "unit": "mg/kg"}, {"measurement": "MIC", "setting": "K. pneumoniae A20468", "value": 0.06, "unit": "µg/mL"}, {"measurement": "MIC", "setting": "E. cloacae A-9656; Enterobacter cloacae, A9656", "value": 0.06, "unit": "µg/mL"}, {"measurement": "MIC E. cloacae A-9656", "setting": "E. cloacae A-9656; additional data table", "value": 0.06, "unit": "µg/mL"}, {"measurement": "MIC", "setting": "P. mirabilis A-9900", "value": 0.06, "unit": "µg/mL"}, {"measurement": "MIC", "setting": "P. mirabilis A-9900; additional data table", "value": 0.03, "unit": "µg/mL"}, {"measurement": "MIC P. mirabilis A-9900", "setting": "P. mirabilis A-9900; [6]", "value": 0.06, "unit": "µg/mL"}, {"measurement": "dose excreted at 24 h", "setting": "[2]", "value": "< 0.1", "unit": "%"}, {"measurement": "MIC S. aureus (Pen-res.) A-9606", "setting": "[3]; additional data table, listed as MK 0787", "value": 0.004, "unit": "µg/mL"}, {"measurement": "MIC", "setting": "[3]; additional data table, read-out: MIC S. aureus (Pen-res.) A-9606", "value": 0.008, "unit": "µg/mL"}, {"measurement": "MIC", "setting": "[3]; read-out: MIC S. aureus A-9606 (Pen-res.)", "value": 0.008, "unit": "µg/mL"}, {"measurement": "MIC", "setting": "K. pneumoniae A-9664", "value": 0.13, "unit": "µg/mL"}, {"measurement": "MIC", "setting": "K. pneumoniae A-9664; additional data table", "value": 0.03, "unit": "µg/mL"}, {"measurement": "MIC K. pneumoniae A-9664", "setting": "K. pneumoniae A-9664; [6]", "value": 0.06, "unit": "µg/mL"}, {"measurement": "MIC", "setting": "S. pyogenes A-9604", "value": 0.001, "unit": "µg/mL"}, {"measurement": "MIC", "setting": "S. pyogenes A-9604; additional data table", "value": 0.002, "unit": "µg/mL"}, {"measurement": "MIC S. pyogenes A-9604", "setting": "S. pyogenes A-9604; [6]", "value": 0.001, "unit": "µg/mL"}, {"measurement": "MIC S. pneumoniae A-9585", "setting": "S. pneumoniae A-9585; Nutrient Broth, additional data table, listed as MK 0787", "value": 0.001, "unit": "µg/mL"}, {"measurement": "MIC", "setting": "S. pneumoniae A-9585", "value": 0.004, "unit": "µg/mL"}, {"measurement": "MIC", "setting": "S. pneumoniae A-9585; additional data table", "value": 0.002, "unit": "µg/mL"}, {"measurement": "MIC", "setting": "P. aeruginosa A21213", "value": 0.25, "unit": "µg/mL"}, {"measurement": "MIC", "setting": "P. aeruginosa A21213; additional data table", "value": 0.13, "unit": "µg/mL"}, {"measurement": "MIC P. aeruginosa A21213", "setting": "P. aeruginosa A21213; [6]", "value": 0.25, "unit": "µg/mL"}, {"measurement": "MIC", "setting": "S. faecalis A20688", "value": 0.5, "unit": "µg/mL"}, {"measurement": "MIC", "setting": "S. faecalis A20688; additional data table", "value": 0.25, "unit": "µg/mL"}, {"measurement": "MIC S. faecalis A20688", "setting": "S. faecalis A20688; [6]", "value": 0.5, "unit": "µg/mL"}, {"measurement": "MIC", "setting": "P. morganii A15153", "value": 0.13, "unit": "µg/mL"}, {"measurement": "ED50", "setting": "P. aeruginosa A-9843a [4]; read-out: PD50/treatment, P. aeruginosa A9843A", "value": 1, "unit": "mg/kg"}, {"measurement": "ED50", "setting": "P. aeruginosa A-9843a [4]; mice, i.m., *Historical data, read-out: PD50/Treatment, P. aeruginosa A-9843a (historical data)", "value": 0.5, "unit": "mg/kg"}, {"measurement": "Blood AUC", "setting": "[5]", "value": 6000, "unit": "ng·h/mL"}, {"measurement": "MIC", "setting": "P. rettgeri A22424", "value": 0.25, "unit": "µg/mL"}, {"measurement": "MIC", "setting": "P. rettgeri A22424; additional data table", "value": 0.13, "unit": "µg/mL"}]}]}
